Data from patent US20260116920A1, “HUMAN TRANSFERRIN RECEPTOR BINDING PEPTIDE” (PEPTIDREAM INC., priority 2021, published 2026).
Where two headings read alike, the source gives them in different places. Positions of bridges follow the written chain, without caps; N, C: chain ends. Non-standard residues stand in square brackets, D forms with d. Residues, ends and D or L forms follow the SMILES beside them. *: point of attachment. Trp(1-CH2COOH) = N[C@@H](Cc1cn(CC(=O)O)c2ccccc12)C(=O)O; Nle(6-morpholino) = N[C@@H](CCCCN1CCOCC1)C(=O)O; Phe(3-COOH) = N[C@@H](Cc1cccc(C(=O)O)c1)C(=O)O; NH(CH2CH2O)8Me = COCCOCCOCCOCCOCCOCCOCCOCCN*; NMePhe(3-Cl) = CN[C@@H](Cc1cccc(Cl)c1)C(=O)O; 3Pal(6-NH2) = Nc1ccc(C[C@H](N)C(=O)O)cn1; NMeY = CN[C@@H](Cc1ccc(O)cc1)C(=O)O; 3Pal = N[C@@H](Cc1cccnc1)C(=O)O; 4Pal = N[C@@H](Cc1ccncc1)C(=O)O; PEG4 = NCCOCCOCCOCCOCCC(=O)O; Carboxymethyl = O=C(O)C*; NHCH2CH2OMe = COCCN*

Target: T1, human transferrin receptor (hTfR) (Homo sapiens, UniProt P02786)
T1 construct: made in house
T1 sequence (P02786 89-760 limits assumed): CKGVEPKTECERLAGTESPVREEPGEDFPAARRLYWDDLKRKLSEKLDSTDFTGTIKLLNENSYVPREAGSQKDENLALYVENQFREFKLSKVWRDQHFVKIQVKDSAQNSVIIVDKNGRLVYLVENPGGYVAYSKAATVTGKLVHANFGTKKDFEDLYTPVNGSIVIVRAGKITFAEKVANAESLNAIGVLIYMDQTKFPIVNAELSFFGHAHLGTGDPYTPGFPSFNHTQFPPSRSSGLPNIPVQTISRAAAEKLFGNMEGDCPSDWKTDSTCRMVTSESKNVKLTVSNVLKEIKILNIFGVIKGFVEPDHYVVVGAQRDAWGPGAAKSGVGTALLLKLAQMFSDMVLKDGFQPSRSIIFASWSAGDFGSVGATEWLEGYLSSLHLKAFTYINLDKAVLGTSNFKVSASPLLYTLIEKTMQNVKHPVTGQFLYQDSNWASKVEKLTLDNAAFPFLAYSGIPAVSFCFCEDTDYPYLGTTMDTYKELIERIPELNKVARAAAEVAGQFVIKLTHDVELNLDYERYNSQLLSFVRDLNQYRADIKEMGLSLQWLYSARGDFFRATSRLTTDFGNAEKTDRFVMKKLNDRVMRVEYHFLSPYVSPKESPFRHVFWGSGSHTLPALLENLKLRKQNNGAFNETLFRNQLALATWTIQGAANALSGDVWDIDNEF
Experiment: Evaluation of molecular interaction between transferrin receptor (hTfR) and peptide using surface plasmon resonance (SPR)
Assay type: binding
Method in brief: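 Steps: NTA chip loaded with NiCl2, activated with EDC/NHS, coated with 0.5 μM hTfR dimer, capped with ethanolamine. Peptides diluted from DMSO stock into running buffer (pH 8.0, 1.0% DMSO) at 5–100 nM and injected in single-cycle mode. Sensorgrams fitted to give KD.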

[1] = surface plasmon resonance, binding to hTfR, KD class symbol, read-out: SPR (KD value)
[2] = KD class for binding to hTfR by SPR, peptide with the linker shown in the same line, 'low signal indicates no activity', read-out: SPR

Structure (SMILES): CC[C@H](C)[C@@H]1NC(=O)[C@H](Cc2ccc(OCC(=O)O)cc2)NC(=O)[C@H](Cc2ccc(O)cc2)NC(=O)[C@H](CC(N)=O)NC(=O)[C@H](Cc2cn(CC(=O)O)c3ccccc23)NC(=O)[C@H](C(C)C)NC(=O)[C@H](Cc2cccc(Cl)c2)N(C)C(=O)[C@H](C(C)C)NC(=O)[C@H](C)NC(=O)CSC[C@@H](C(=O)NCCOCCOCCOCCOCCC(N)=O)NC(=O)[C@H](Cc2ccc(O)cc2)N(C)C(=O)[C@H](Cc2ccncc2)NC(=O)[C@H](CCCNC(=N)N)NC(=O)[C@H](CCC(N)=O)NC(=O)[C@H]([C@@H](C)CC)NC1=O [compound 134]
- Kd [1]: 0.001 to 0.1 µM

Structure (SMILES): CC[C@H](C)[C@@H]1NC(=O)[C@H](Cc2ccc(O)cc2)NC(=O)[C@H](Cc2ccc(O)cc2)NC(=O)[C@H](CC(N)=O)NC(=O)[C@H](Cc2c[nH]c3ccc(Cl)cc23)NC(=O)[C@H](C(C)C)NC(=O)[C@H](Cc2ccccc2)N(C)C(=O)[C@H](C(C)C)NC(=O)[C@H](C)NC(=O)CSC[C@@H](C(=O)NCCOCCOCCOCCOCCC(N)=O)NC(=O)[C@H](Cc2ccc(O)cc2)N(C)C(=O)[C@H](Cc2ccccc2)NC(=O)[C@H](CCCNC(=N)N)NC(=O)[C@H](CCCNC(=N)N)NC(=O)[C@H]([C@@H](C)CC)NC1=O [compound 18]
- Kd [1]: < 0.001 µM

Structure (SMILES): CC[C@H](C)[C@@H]1NC(=O)[C@H](Cc2ccc(OCC(=O)O)cc2)NC(=O)[C@H](Cc2ccc(O)cc2)NC(=O)[C@H](CC(N)=O)NC(=O)[C@H](Cc2cn(CC(=O)O)c3ccccc23)NC(=O)[C@H](C(C)C)NC(=O)[C@H](Cc2cccc(Cl)c2)N(C)C(=O)[C@H](C(C)C)NC(=O)[C@H](C)NC(=O)CSC[C@@H](C(=O)NCCOCCOCCOCCOCCC(N)=O)NC(=O)[C@H](Cc2ccc(O)cc2)N(C)C(=O)[C@H](Cc2ccccc2)NC(=O)[C@H](CCCNC(=N)N)NC(=O)[C@H](CCC(=O)NCCOCCOCCOCCOCCOCCOCCOCCOC)NC(=O)[C@H]([C@@H](C)CC)NC1=O [compound 101]
- Kd [1]: 0.001 to 0.1 µM

Structure (SMILES): CC[C@H](C)[C@@H]1NC(=O)[C@H](Cc2ccc(OCC(=O)O)cc2)NC(=O)[C@H](Cc2ccc(O)cc2)NC(=O)[C@H](CC(N)=O)NC(=O)[C@H](Cc2c[nH]c3ccccc23)NC(=O)[C@H](C(C)C)NC(=O)[C@H](Cc2cccc(Cl)c2)N(C)C(=O)[C@H](C(C)C)NC(=O)[C@H](C)NC(=O)CSC[C@@H](C(=O)NCCOCCOCCOCCOCCC(N)=O)NC(=O)[C@H](Cc2ccc(O)cc2)N(C)C(=O)[C@H](Cc2ccncc2)NC(=O)[C@H](CCCNC(=N)N)NC(=O)[C@H](CCCNC(=N)N)NC(=O)[C@H]([C@@H](C)CC)NC1=O [894_0364]
- Kd [2]: 0.001 to 0.1 µM

Structure (SMILES): CC[C@H](C)[C@@H]1NC(=O)[C@H](Cc2ccc(OCC(=O)O)cc2)NC(=O)[C@H](Cc2ccc(O)cc2)NC(=O)[C@H](CC(N)=O)NC(=O)[C@H](Cc2cn(CC(=O)O)c3ccccc23)NC(=O)[C@H](C(C)C)NC(=O)[C@H](Cc2cccc(Cl)c2)N(C)C(=O)[C@H](C(C)C)NC(=O)[C@H](C)NC(=O)CSC[C@@H](C(=O)NCCOCCOCCOCCOCCC(N)=O)NC(=O)[C@H](Cc2ccc(O)cc2)N(C)C(=O)[C@H](Cc2cccc(C(=O)O)c2)NC(=O)[C@H](CCCCN2CCOCC2)NC(=O)[C@H](CCC(=O)NCCOCCOCCOCCOCCOCCOCCOCCOC)NC(=O)[C@H]([C@@H](C)CC)NC1=O [compound 217] ({CH2CO}-AV[NMePhe(3-Cl)]V[Trp(1-CH2COOH)]NYY(Carboxymethyl)IIE(NH(CH2CH2O)8Me)[Nle(6-morpholino)][Phe(3-COOH)][NMeY]C[PEG4]-NH2; thioether N-15)
- Kd (peptide with linker, surface plasmon resonance, read-out: SPR (KD class for binding to hTfR)): 0.001 to 0.1 µM

Structure (SMILES): CC[C@H](C)[C@@H]1NC(=O)[C@H](Cc2ccc(OCC(=O)O)cc2)NC(=O)[C@H](Cc2ccc(O)cc2)NC(=O)[C@H](CC(N)=O)NC(=O)[C@H](Cc2cn(CC(=O)O)c3ccccc23)NC(=O)[C@H](C(C)C)NC(=O)[C@H](Cc2cccc(Cl)c2)N(C)C(=O)[C@H](C(C)C)NC(=O)[C@H](C)NC(=O)CSC[C@@H](C(=O)NCCOCCOCCOCCOCCC(N)=O)NC(=O)[C@H](Cc2ccc(O)cc2)N(C)C(=O)[C@H](Cc2ccccc2)NC(=O)[C@H](CCCNC(=N)N)NC(=O)[C@H](CCC(N)=O)NC(=O)[C@H]([C@@H](C)CC)NC1=O [compound 104]
- Kd [1]: 0.001 to 0.1 µM

Structure (SMILES): CC[C@H](C)[C@@H]1NC(=O)[C@H](Cc2cccnc2)NC(=O)[C@H](Cc2ccc(O)cc2)NC(=O)[C@H](CC(N)=O)NC(=O)[C@H](Cc2cn(CC(=O)O)c3ccccc23)NC(=O)[C@H](C(C)C)NC(=O)[C@H](Cc2cccc(Cl)c2)N(C)C(=O)[C@H](C(C)C)NC(=O)[C@H](C)NC(=O)CSC[C@@H](C(=O)NCCOCCOCCOCCOCCC(N)=O)NC(=O)[C@H](Cc2ccc(O)cc2)N(C)C(=O)[C@H](Cc2ccncc2)NC(=O)[C@H](CCCNC(=N)N)NC(=O)[C@H](CCCNC(=N)N)NC(=O)[C@H]([C@@H](C)CC)NC1=O [compound 48] ({CH2CO}-AV[NMePhe(3-Cl)]V[Trp(1-CH2COOH)]NY[3Pal]IIRR[4Pal][NMeY]C[PEG4]-NH2; thioether N-15)
- Kd [1]: 0.001 to 0.1 µM

Structure (SMILES): CC[C@H](C)[C@@H]1NC(=O)[C@H](Cc2ccc(OCC(=O)O)cc2)NC(=O)[C@H](Cc2ccc(N)nc2)NC(=O)[C@H](CC(N)=O)NC(=O)[C@H](Cc2cn(CC(=O)O)c3ccccc23)NC(=O)[C@H](C(C)C)NC(=O)[C@H](Cc2cccc(Cl)c2)N(C)C(=O)[C@H](C(C)C)NC(=O)[C@H](C)NC(=O)CSC[C@@H](C(=O)NCCOCCOCCOCCOCCC(N)=O)NC(=O)[C@H](Cc2ccc(O)cc2)N(C)C(=O)[C@H](Cc2cccc(C(=O)O)c2)NC(=O)[C@H](CCC(=O)NCCOCCOCCOCCOCCOCCOCCOCCOC)NC(=O)[C@H](CCCNC(=N)N)NC(=O)[C@H]([C@@H](C)CC)NC1=O [compound 87] ({CH2CO}-AV[NMePhe(3-Cl)]V[Trp(1-CH2COOH)]N[3Pal(6-NH2)]Y(Carboxymethyl)IIRE(NH(CH2CH2O)8Me)[Phe(3-COOH)][NMeY]C[PEG4]-NH2; thioether N-15)
- Kd [1]: 0.1 to 1 µM

Structure (SMILES): CC[C@H](C)[C@@H]1NC(=O)[C@H](Cc2ccc(OC)cc2)NC(=O)[C@H](Cc2ccc(O)cc2)NC(=O)[C@H](CC(N)=O)NC(=O)[C@H](Cc2c[nH]c3ccc(Cl)cc23)NC(=O)[C@H](C(C)C)NC(=O)[C@H](Cc2ccccc2)N(C)C(=O)[C@H](C(C)C)NC(=O)[C@H](C)NC(=O)CSC[C@@H](C(=O)NCC(=O)N[C@@H](CCCCN=[N+]=[N-])C(N)=O)NC(=O)[C@H](Cc2ccc(O)cc2)N(C)C(=O)[C@H](Cc2ccccc2)NC(=O)[C@H](CCCNC(=N)N)NC(=O)[C@H](CCCNC(=N)N)NC(=O)[C@H]([C@@H](C)CC)NC1=O [894_3154]
- Kd [2]: 0.001 to 0.1 µM

Structure (SMILES): CC[C@H](C)[C@@H]1NC(=O)[C@H](Cc2ccc(OCC(=O)O)cc2)NC(=O)[C@H](Cc2ccc(O)cc2)NC(=O)[C@H](CC(N)=O)NC(=O)[C@H](Cc2c[nH]c3ccccc23)NC(=O)[C@H](C(C)C)NC(=O)[C@H](Cc2cccc(Cl)c2)N(C)C(=O)[C@H](C(C)C)NC(=O)[C@H](C)NC(=O)CSC[C@@H](C(=O)NCCOCCOCCOCCOCCC(N)=O)NC(=O)[C@H](Cc2ccc(O)cc2)N(C)C(=O)[C@H](Cc2ccncc2)NC(=O)[C@H](CCC(=O)NCCOCCOCCOCCOCCOCCOCCOCCOC)NC(=O)[C@H](CCCNC(=N)N)NC(=O)[C@H]([C@@H](C)CC)NC1=O [compound 96] ({CH2CO}-AV[NMePhe(3-Cl)]VWNYY(Carboxymethyl)IIRE(NH(CH2CH2O)8Me)[4Pal][NMeY]C[PEG4]-NH2; thioether N-15)
- Kd [1]: 0.001 to 0.1 µM

Structure (SMILES): CC[C@H](C)[C@@H]1NC(=O)[C@H](Cc2ccc(OC)cc2)NC(=O)[C@H](Cc2ccc(O)cc2)NC(=O)[C@H](CC(N)=O)NC(=O)[C@H](Cc2c[nH]c3ccccc23)NC(=O)[C@H](C(C)C)NC(=O)[C@H](Cc2cccc(Cl)c2)N(C)C(=O)[C@H](C(C)C)NC(=O)[C@H](C)NC(=O)CSC[C@@H](C(=O)NCC(=O)N[C@@H](CCCCN=[N+]=[N-])C(N)=O)NC(=O)[C@H](Cc2ccc(O)cc2)N(C)C(=O)[C@H](Cc2ccccc2)NC(=O)[C@H](CCCNC(=N)N)NC(=O)[C@H](CCCCN)NC(=O)[C@H]([C@@H](C)CC)NC1=O [compound 12]
- Kd [1]: 0.001 to 0.1 µM

Structure (SMILES): CC[C@H](C)[C@@H]1NC(=O)[C@H](Cc2ccc(OC)cc2)NC(=O)[C@H](Cc2ccc(O)cc2)NC(=O)[C@H](CC(N)=O)NC(=O)[C@H](Cc2c[nH]c3ccccc23)NC(=O)[C@H](C(C)C)NC(=O)[C@H](Cc2cccc(Cl)c2)N(C)C(=O)[C@H](C(C)C)NC(=O)[C@H](C)NC(=O)CSC[C@@H](C(=O)NCCOCCOCCOCCOCCC(N)=O)NC(=O)[C@H](Cc2ccc(O)cc2)N(C)C(=O)[C@H](Cc2ccccc2)NC(=O)[C@H](CCC(=O)NCCOC)NC(=O)[C@H](CCC(=O)NCCOC)NC(=O)[C@H]([C@@H](C)CC)NC1=O [894_0330] ({CH2CO}-AV[NMePhe(3-Cl)]VWNYY(Me)IIE(NHCH2CH2OMe)E(NHCH2CH2OMe)F[NMeY]C[PEG4]-NH2; thioether N-15)
- Kd [2]: 0.001 to 0.1 µM

Structure (SMILES): CC[C@H](C)[C@@H]1NC(=O)[C@H](Cc2ccc(OCC(=O)O)cc2)NC(=O)[C@H](Cc2ccc(N)nc2)NC(=O)[C@H](CC(N)=O)NC(=O)[C@H](Cc2cn(CC(=O)O)c3ccccc23)NC(=O)[C@H](C(C)C)NC(=O)[C@H](Cc2cccc(Cl)c2)N(C)C(=O)[C@H](C(C)C)NC(=O)[C@H](C)NC(=O)CSC[C@@H](C(=O)NCCOCCOCCOCCOCCC(N)=O)NC(=O)[C@H](Cc2ccc(O)cc2)N(C)C(=O)[C@H](Cc2ccccc2)NC(=O)[C@H](CCCNC(=N)N)NC(=O)[C@H](CCCNC(=N)N)NC(=O)[C@H]([C@@H](C)CC)NC1=O [compound 71] ({CH2CO}-AV[NMePhe(3-Cl)]V[Trp(1-CH2COOH)]N[3Pal(6-NH2)]Y(Carboxymethyl)IIRRF[NMeY]C[PEG4]-NH2; thioether N-15)
- Kd [1]: 0.001 to 0.1 µM

Structure (SMILES): CC[C@H](C)[C@@H]1NC(=O)[C@H](Cc2ccc(OC)cc2)NC(=O)[C@H](Cc2ccc(O)cc2)NC(=O)[C@H](CC(N)=O)NC(=O)[C@H](Cc2c[nH]c3ccccc23)N(C)C(=O)[C@H](C(C)C)NC(=O)[C@H](Cc2ccc(F)cc2)N(C)C(=O)[C@H](C(C)C)NC(=O)[C@H](C)NC(=O)CSC[C@@H](C(=O)NCCOCCOCCOCCOCCC(N)=O)NC(=O)[C@H](Cc2ccc(O)cc2)N(C)C(=O)[C@H](Cc2ccccc2)NC(=O)[C@@H](CCCNC(=N)N)NC(=O)[C@H](CCCNC(=N)N)NC(=O)[C@H]([C@@H](C)CC)NC1=O [compound 29]
- Kd [1]: 0.001 to 0.1 µM
